Assay results published in ChEMBL document CHEMBL1145539 (2007).
Converted amounts (≈) assume the structure as drawn.

Assays:
[1] = test system: Staphylococcus aureus; assay: Antimicrobial activity against methicillin-susceptible Staphylococcus aureus by time-kill methodology
[2] = test system: Staphylococcus aureus; assay: Antimicrobial activity against community-acquired methicillin-resistant Staphylococcus aureus Panton-Valentine leukocidin negative by time-kill methodology; type: functional
[3] = test system: Staphylococcus aureus; assay: Antimicrobial activity against vancomycin-resistant Staphylococcus aureus by time-kill methodology; type: functional
[4] = test system: Staphylococcus aureus; assay: Antimicrobial activity against vancomycin-intermediate Staphylococcus aureus by time-kill methodology; type: functional
[5] = test system: Staphylococcus aureus; assay: Antimicrobial activity against nosocomially-acquired methicillin-resistant Staphylococcus aureus by time-kill methodology; type: functional
[6] = test system: Staphylococcus aureus; assay: Antimicrobial activity against community-acquired methicillin-resistant Staphylococcus aureus Panton-Valentine leukocidin positive by time-kill methodology; type: functional

For `CCCCCCCCCC(=O)N[C@@H](Cc1c[nH]c2ccccc12)C(=O)N[C@H](CC(N)=O)C(=O)N[C@@H](CC(=O)O)C(=O)N[C@@H]1C(=O)NCC(=O)N[C@@H](CCCN)C(=O)N[C@@H](CC(=O)O)C(=O)N[C@H](C)C(=O)N[C@@H](CC(=O)O)C(=O)NCC(=O)N[C@H](CO)C(=O)N[C@@H]([C@H](C)CC(=O)O)C(=O)N[C@@H](CC(=O)c2ccccc2N)C(=O)O[C@@H]1C`, the MIC [1] was 0.25 µg/mL (≈ 0.154 µM), the MIC [2] was 0.5 µg/mL (≈ 0.309 µM) and the MIC [3] was 0.25 µg/mL (≈ 0.154 µM). For the same compound, the MIC [4] was 2 µg/mL (≈ 1.23 µM), the MIC [5] was 0.25 µg/mL (≈ 0.154 µM) and the MIC [6] was 0.5 µg/mL (≈ 0.309 µM).
`CO[C@H]1/C=C/O[C@@]2(C)Oc3c(C)c(O)c4c(O)c(c(/C=N/N5CCN(C)CC5)c(O)c4c3C2=O)NC(=O)/C(C)=C\C=C\[C@H](C)[C@H](O)[C@@H](C)[C@@H](O)[C@@H](C)[C@H](OC(C)=O)[C@@H]1C` [RIFAMPIN] showed an MIC [1] of 0.008 µg/mL (≈ 0.00972 µM), an MIC [2] of 0.016 µg/mL (≈ 0.0194 µM) and an MIC [3] of 0.008 µg/mL (≈ 0.00972 µM). It also gave an MIC [4] of 0.016 µg/mL (≈ 0.0194 µM), an MIC [5] of 0.004 µg/mL (≈ 0.00486 µM) and an MIC [6] of 0.004 µg/mL (≈ 0.00486 µM).
For GENTAMICIN, the MIC [2] was 1 µg/mL, the MIC [3] was 64 µg/mL and the MIC [4] was 1 µg/mL. For the same compound, the MIC [5] was 1 µg/mL and the MIC [6] was 1 µg/mL.
